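Dose response: 5 concentrations. Exposure: 48 h. Format: 96-well plates. Endpoint: linear interpolation; highest concentration if not reached. At the TGI there is no net growth.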
Tests used:
Experiment in all cases: NCI anticancer screen, dose series, 48 h
CAKI-1 renal = test system: CAKI-1 renal
HCT-15 colon = test system: HCT-15 colon
HS 578T breast = test system: HS 578T breast
M14 melanoma = test system: M14 melanoma
NCI-H460 lung = test system: NCI-H460 lung
RPMI-8226 leukemia = test system: RPMI-8226 leukemia
SK-OV-3 ovarian = test system: SK-OV-3 ovarian
U251 CNS = test system: U251 CNS
DLD-1 colon = test system: DLD-1 colon
DMS 273 small cell lung = test system: DMS 273 small cell lung
KM20L2 colon = test system: KM20L2 colon
XF 498 CNS = test system: XF 498 CNS

Row | Structure (SMILES) | TGI (CAKI-1 renal) [µM] | TGI (HCT-15 colon) [µM] | TGI (HS 578T breast) [µM] | TGI (M14 melanoma) [µM] | TGI (NCI-H460 lung) [µM] | TGI (RPMI-8226 leukemia) [µM] | TGI (SK-OV-3 ovarian) [µM] | TGI (U251 CNS) [µM] | TGI (DLD-1 colon) [µM] | TGI (DMS 273 small cell lung) [µM] | TGI (KM20L2 colon) [µM] | TGI (XF 498 CNS) [µM]
1 | COC(=O)CN1c2nc(C#N)c(C#N)nc2N(CC(=O)OC)c2nc(C#N)c(C#N)nc21 | 1.55 | > 36 | 39.6 | 5.31 | > 71 | > 100 | 35.2 | > 57.1 |  |  |  | 
2 | O=C(CN(c1ccccc1)c1ccccc1)N1c2ccccc2C2C=CC=CC21 (stereo not given) | 32.2 | 32.1 |  | > 57.3 | 36.1 | > 28.1 | > 56.4 | > 56.5 | > 57.5 | > 60.3 | 55.4 | 53.2
3 | CCc1c[n+]([O-])c(C)cc1[N+](=O)[O-] | > 100 | 40.1 | > 100 | > 100 | 63.5 | > 100 | > 100 | > 100 |  |  |  | 
4 | CCN1CCCC(NCc2c3ccccc3c(CNC3CCCN(CC)C3)c3ccccc23)C1 (stereo not given) | 50 | 43.9 |  |  | 18.3 | 54.3 | 36.7 | 45.3 | 69.5 | 18.2 | 20.9 | > 52.1
5 | CCN(CC)CCCNC(=O)c1ccc([N+](=O)[O-])cc1O | > 100 | > 100 |  | > 100 | > 100 |  | > 100 | > 100 | > 100 | > 100 | > 100 | 
6 | CC(C(=O)N1C(=O)N(C(=O)C(C)C(O)c2ccccc2)C2CCCCC21)C(O)c1ccccc1 (stereo not given) |  | > 100 |  | > 100 | > 100 | > 100 |  | > 100 |  | > 100 | > 100 | > 100
7 | COc1ccc(S(=O)(=O)N2C(=O)CCC2C(=O)NN)cc1 (stereo not given) | > 100 | > 100 | > 100 | > 100 | > 100 | > 100 | > 100 | > 100 |  |  |  | 
8 | Clc1ccc(CSCCc2ccncc2)cc1Cl | > 100 | 56.7 | 53.8 | 32.5 | > 100 | 40.3 | 59.4 | 28.5 |  |  |  | 
9 | CCC1=CC2CN3Cn4c(c(COCc5c6n(c7ccccc57)CN5CC7C=C(CC)C5C6(C(=O)OC)C7)c5ccccc54)C(C(=O)OC)(C2)C13 | > 100 | > 100 |  | > 100 | > 100 | > 100 | > 100 | > 100 | > 100 | > 100 | > 100 | > 100
10 | NC(CC1=CS(=O)(=O)c2ccc(Cl)cc21)C(=O)O (stereo not given) | > 100 | > 100 | > 100 | > 100 | > 100 | > 100 | > 100 | > 100 |  |  |  | 
11 | CCCCn1cnc2c(c(CC#N)nn2-c2ccccc2)c1=N | > 100 | > 100 | > 100 | > 100 | > 100 | 73.4 | > 100 | > 100 |  |  |  | 
12 | C=C1c2cc3c(cc2CC12Cc1cc4c(cc1C2=O)CCC4)CCC3 (stereo not given) | > 100 | > 100 | > 100 | > 100 | > 100 | > 100 | > 100 | > 100 |  |  |  | 
13 | O=C1CC(C(O)(C(F)(F)F)C(F)(F)Cl)CCC1C(O)(C(F)(F)F)C(F)(F)Cl (stereo not given) | > 10 | > 10 | > 10 | > 10 | > 10 | > 10 | > 10 | > 10 |  |  |  | 
14 | CN(Cc1ccccc1)c1cc(=O)n(C)c(=O)[nH]1 | > 100 | > 100 | > 100 | > 100 | > 100 | > 100 | > 100 | > 100 |  |  |  | 
15 | NCCCN1CCN(CCCNc2ccc3nnn4c5ccccc5c(=O)c2c34)CC1 | 59.2 | > 100 | 81.8 | 38.4 | 58.1 | > 100 | > 100 | > 100 |  |  |  | 
16 | C[C@@H]1S[C@H](c2ccccc2F)N2Cc3ccccc3N=C12 | > 100 | > 100 | > 100 | 48.7 | > 100 | 44.4 | 85.1 | > 100 |  |  |  | 
17 | COC(C)(C)[C@@H](O)[C@H]1C[C@H](C)[C@@]2(CC[C@]3(C)[C@@H]2CC[C@@H]2[C@@]4(C)CC[C@@H](OC(C)=O)C(C)(C)[C@@H]4C[C@@H](OC4OC(COC(C)=O)C(O)C(O)C4O)[C@]23C)O1 (stereo not given in full) | 24.1 | 5.75 | 23.7 | 16.5 | 15.6 | 5.7 | 15.1 | 18.5 |  |  |  | 

Reference: PubChem BioAssay (NCI)
